Target: MAPK14 (human) (UniProt Q16539)
Test: Inhibition of MAPK14 Kinase Activity

Chain of MAPK14 (human) (Q16539 whole entry, looked up): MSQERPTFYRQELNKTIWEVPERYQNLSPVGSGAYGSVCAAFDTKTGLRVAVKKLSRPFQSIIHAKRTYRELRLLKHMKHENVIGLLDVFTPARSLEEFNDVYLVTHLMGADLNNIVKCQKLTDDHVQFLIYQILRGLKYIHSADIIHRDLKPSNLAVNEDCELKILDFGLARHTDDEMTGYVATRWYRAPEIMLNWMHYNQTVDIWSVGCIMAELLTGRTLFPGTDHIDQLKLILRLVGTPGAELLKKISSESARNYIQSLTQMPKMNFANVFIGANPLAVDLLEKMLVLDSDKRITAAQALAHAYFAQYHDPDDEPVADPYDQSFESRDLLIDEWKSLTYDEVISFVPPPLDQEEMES

Row | Compound | IC50 [µM]
1 | CCOC(=O)NCCNc1nc(-c2ccc(F)cc2C)c2ccc(=O)n(-c3c(F)cccc3F)c2n1 | < 10
2 | Cc1cc(F)ccc1-c1nc(N(C)CCO)nc2c1ccc(=O)n2-c1c(F)cccc1F | < 10
3 | COc1nc(-c2ccc(F)cc2C)c2ccc(=O)n(-c3c(F)cccc3F)c2n1 | < 10
4 | CSc1nc(-c2ccc(F)cc2C)c2ccc(=O)n(C3CC3)c2n1 | < 10
5 | CS(=O)(=O)c1nc(-c2ccccc2)c2ccc(=O)n(-c3ccccc3)c2n1 | < 10
6 | Cc1cc(F)ccc1-c1nc(NCCO)nc2c1ccc(=O)n2-c1c(F)cccc1F | < 10
7 | CCC(CC)n1c(=O)ccc2c(-c3ccccc3Cl)nc(NC3CCN(C)CC3)nc21 | < 10
8 | O=c1ccc2c(-c3ccccc3Cl)nc(NC3CCNCC3)nc2n1-c1ccccc1Cl | < 10
9 | Cc1cc(F)ccc1-c1nc(NCC(=O)N2CC(O)C2)nc2c1ccc(=O)n2-c1c(F)cccc1F | < 10
10 | CS(=O)(=O)c1nc(-c2ccccc2Cl)c2ccc(=O)n(-c3ccccc3Cl)c2n1 | < 10
11 | CCNc1nc(-c2ccc(F)cc2C)c2ccc(=O)n(-c3ccccc3C)c2n1 | < 10
12 | Cc1cc(CNc2nc(-c3ccc(F)cc3C)c3ccc(=O)n(-c4c(F)cccc4F)c3n2)on1 | < 10
13 | COc1nc(-c2ccccc2Cl)c2ccc(=O)n(-c3ccccc3Cl)c2n1 | < 10
14 | CCONc1nc(-c2ccc(F)cc2C)c2ccc(=O)n(-c3ccccc3F)c2n1 | < 10
15 | CCNC(=O)NCCNc1nc(-c2ccc(F)cc2C)c2ccc(=O)n(-c3c(F)cccc3F)c2n1 | < 10
16 | CC(=O)NCCOc1nc(-c2ccc(F)cc2C)c2ccc(=O)n(-c3c(F)cccc3F)c2n1 | < 10
17 | CCn1c(=O)ccc2c(-c3ccccc3F)nc(SC)nc21 | < 10
18 | Cc1cc(F)ccc1-c1nc(NCCc2nnn[nH]2)nc2c1ccc(=O)n2-c1c(F)cccc1F | < 10
19 | Cc1cc(F)ccc1-c1nc(NCC(=O)N(C)C)nc2c1ccc(=O)n2-c1c(F)cccc1F | < 10
20 | CSc1nc(-c2ccc(F)cc2C)c2ccc(=O)n(C3CCCCC3)c2n1 | < 10
21 | O=c1ccc2c(-c3ccccc3Cl)nc(NCCO)nc2n1-c1ccccc1Cl | < 10
22 | Cc1cc(F)ccc1-c1nc(NCC(F)(F)F)nc2c1ccc(=O)n2-c1ccccc1C | < 10
23 | Cc1cc(F)ccc1-c1nc(NCCC#N)nc2c1ccc(=O)n2-c1c(F)cccc1F | < 10
24 | NCCNc1nc(-c2ccccc2Cl)c2ccc(=O)n(-c3ccccc3Cl)c2n1 | < 10

Row | Compound | IC50 [µM]
25 | CSc1nc(-c2ccc(F)cc2C)c2ccc(=O)n(CC3CC3)c2n1 | < 10
26 | Cc1cc(F)ccc1-c1nc(Nc2ccnc(=O)[nH]2)nc2c1ccc(=O)n2-c1c(F)cccc1F | < 10
27 | Cc1cc(F)ccc1-c1nc(NC[C@@H](C)O)nc2c1ccc(=O)n2C1CCCCC1 | < 10
28 | COc1nc(-c2ccccc2F)c2ccc(=O)n(-c3ccccc3Cl)c2n1 | < 10
29 | CC(CO)(CO)Nc1nc(-c2ccccc2Cl)c2ccc(=O)n(-c3ccccc3Cl)c2n1 | < 10
30 | Cc1cc(F)ccc1-c1nc(N[C@H](C)CO)nc2c1ccc(=O)n2-c1c(F)cccc1F | < 10
31 | Cc1cc(F)ccc1-c1nc(NCCNC(=O)C(C)(C)C)nc2c1ccc(=O)n2-c1c(F)cccc1F | < 10
32 | CCOc1nc(-c2ccc(F)cc2C)c2ccc(=O)n(-c3c(F)cccc3F)c2n1 | < 10
33 | Cc1nnc(CNc2nc(-c3ccc(F)cc3C)c3ccc(=O)n(-c4c(F)cccc4F)c3n2)[nH]1 | < 10
34 | O=c1ccc2c(-c3ccccc3F)nc(NC(CO)CO)nc2n1-c1ccccc1F | < 10
35 | Cc1cc(F)ccc1-c1nc(NCC2CCCO2)nc2c1ccc(=O)n2-c1c(F)cccc1F (stereo not drawn) | < 10
36 | Cc1cc(F)ccc1-c1nc(NC[C@H](C)O)nc2c1ccc(=O)n2C1CCCCC1 | < 10
37 | Cc1cc(F)ccc1-c1nc(NCCNC(=O)CN)nc2c1ccc(=O)n2-c1c(F)cccc1F | < 10
38 | Cc1cc(F)ccc1-c1nc(N2CCOCC2)nc2c1ccc(=O)n2-c1ccccc1C | < 10
39 | Cc1cc(F)ccc1-c1nc(OCC(CO)CO)nc2c1ccc(=O)n2-c1c(F)cccc1F | < 10
40 | Cc1cc(F)ccc1-c1nc(NC(CO)(CO)CO)nc2c1ccc(=O)n2-c1c(F)cccc1F | < 10
41 | CSc1nc(-c2ccccc2Cl)c2ccc(=O)n(-c3ccccc3Cl)c2n1 | < 10
42 | Cc1cc(F)ccc1-c1nc(N[C@H]2CCC[C@@H]2O)nc2c1ccc(=O)n2-c1c(F)cccc1F | < 10
43 | Cc1cc(F)ccc1-c1nc(NCCO)nc2c1ccc(=O)n2-c1ccccc1F | < 10
44 | Cc1cc(F)ccc1-c1nc(NCC(C)(C)O)nc2c1ccc(=O)n2-c1c(F)cccc1F | < 10
45 | Cc1cc(F)ccc1-c1nc(OCCNS(C)(=O)=O)nc2c1ccc(=O)n2-c1c(F)cccc1F | < 10
46 | Cc1cc(F)ccc1-c1nc(NCC(=O)N2CCCC2)nc2c1ccc(=O)n2-c1c(F)cccc1F | < 10
47 | Cc1cc(F)ccc1-c1nc(NC2CCCCC2)nc2c1ccc(=O)n2-c1ccccc1F | < 10
48 | Cc1cc(F)ccc1-c1nc(N[C@H]2CCCC[C@@H]2O)nc2c1ccc(=O)n2-c1c(F)cccc1F | < 10
